Tested on: 648629-189-R-J1-PDC spheroids with HUVEC/MSC, viability
Assay: Anticancer human tumor 648629-189-R-J1-PDC patient-derived bladder carcinoma cell line growth inhibition [PI3K]
Details: for IC50: curve of first compound; for viability, T/C: stronger effect = lower value
Outline: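 Multi-cell spheroids combine tumor cells with HUVEC and human MSCs, treated with targeted agents alone or with inavolisib, alpelisib, duvelisib or copanlisib. Concentrations fall in half-log steps from at or near clinical Cmax, or from 10 microM where Cmax is unknown; viability read-out.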

[1] = second compound 0.00316 µM, first compound 0.0316 µM
[2] = second compound 0.00316 µM, first compound 0.1 µM
[3] = second compound 0.01 µM, first compound 0.0316 µM
[4] = second compound 0.01 µM, first compound 0.1 µM
[5] = second compound 0.0316 µM, first compound 0.0316 µM
[6] = second compound 0.0316 µM, first compound 0.1 µM
[7] = second compound 0.1 µM, first compound 0.0316 µM
[8] = second compound 0.1 µM, first compound 0.1 µM
[9] = second compound 0.316 µM, first compound 0.0316 µM
[10] = second compound 0.316 µM, first compound 0.1 µM
[11] = second compound 1 µM, first compound 0.0316 µM
[12] = second compound 1 µM, first compound 0.1 µM
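Note: spheroids exposed to agents for seven days before reading.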
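Throughout, for viability, T/C: percent of vehicle control luminescence where 100% = DMSO treated spheroids.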

SMILES: CC(=O)c1c(C)c2cnc(Nc3ccc(N4CCNCC4)cn3)nc2n(C2CCCC2)c1=O + COc1c(OCCCN2CCOCC2)ccc2c3n(c(=NC(=O)c4cnc(N)nc4)nc12)CCN3
- IC50 (second compound 0.00316 µM): > 100 nM
- IC50 (second compound 0.01 µM): > 100 nM
- IC50 (second compound 0.0316 µM): > 100 nM
- IC50 (second compound 0.1 µM): > 100 nM
- IC50 (second compound 0.316 µM): < 0.316 nM
- IC50 (second compound 1 µM): < 0.316 nM
- viability, T/C (second compound 0.00316 µM, first compound 0.000316 µM): 106%
- viability, T/C (second compound 0.00316 µM, first compound 0.001 µM): 98.1%
- viability, T/C (second compound 0.00316 µM, first compound 0.00316 µM): 99.6%
- viability, T/C (second compound 0.00316 µM, first compound 0.01 µM): 101%
- viability, T/C [1]: 117%
- viability, T/C [2]: 98.9%
- viability, T/C (second compound 0.01 µM, first compound 0.000316 µM): 98.2%
- viability, T/C (second compound 0.01 µM, first compound 0.001 µM): 110%
- viability, T/C (second compound 0.01 µM, first compound 0.00316 µM): 99.8%
- viability, T/C (second compound 0.01 µM, first compound 0.01 µM): 101%
- viability, T/C [3]: 103%
- viability, T/C [4]: 107%
- viability, T/C (second compound 0.0316 µM, first compound 0.000316 µM): 89.7%
- viability, T/C (second compound 0.0316 µM, first compound 0.001 µM): 100%
- viability, T/C (second compound 0.0316 µM, first compound 0.00316 µM): 106%
- viability, T/C (second compound 0.0316 µM, first compound 0.01 µM): 99.1%
- viability, T/C [5]: 89.4%
- viability, T/C [6]: 94.2%
- viability, T/C (second compound 0.1 µM, first compound 0.000316 µM): 68.6%
- viability, T/C (second compound 0.1 µM, first compound 0.001 µM): 66.8%
- viability, T/C (second compound 0.1 µM, first compound 0.00316 µM): 64.8%
- viability, T/C (second compound 0.1 µM, first compound 0.01 µM): 61%
- viability, T/C [7]: 70.1%
- viability, T/C [8]: 68.4%
- viability, T/C (second compound 0.316 µM, first compound 0.000316 µM): 23.5%
- viability, T/C (second compound 0.316 µM, first compound 0.001 µM): 23.2%
- viability, T/C (second compound 0.316 µM, first compound 0.00316 µM): 22.4%
- viability, T/C (second compound 0.316 µM, first compound 0.01 µM): 26.3%
- viability, T/C [9]: 27.6%
- viability, T/C [10]: 19.6%
- viability, T/C (second compound 1 µM, first compound 0.000316 µM): 3.72%
- viability, T/C (second compound 1 µM, first compound 0.001 µM): 3.62%
- viability, T/C (second compound 1 µM, first compound 0.00316 µM): 3.08%
- viability, T/C (second compound 1 µM, first compound 0.01 µM): 4%
- viability, T/C [11]: 4.37%
- viability, T/C [12]: 2.62%

SMILES: CNC(=O)c1ccc(N2C(=S)N(c3ccc(C#N)c(C(F)(F)F)c3)C(=O)C2(C)C)cc1F + COc1c(OCCCN2CCOCC2)ccc2c3n(c(=NC(=O)c4cnc(N)nc4)nc12)CCN3
- IC50 (second compound 0.00316 µM): > 10000 nM
- IC50 (second compound 0.01 µM): > 10000 nM
- IC50 (second compound 0.0316 µM): > 10000 nM
- IC50 (second compound 0.1 µM): > 10000 nM
- IC50 (second compound 0.316 µM): < 31.6 nM
- IC50 (second compound 1 µM): < 31.6 nM
- viability, T/C [1]: 107%
- viability, T/C [2]: 103%
- viability, T/C (second compound 0.00316 µM, first compound 0.316 µM): 113%
- viability, T/C (second compound 0.00316 µM, first compound 1 µM): 116%
- viability, T/C (second compound 0.00316 µM, first compound 3.16 µM): 121%
- viability, T/C (second compound 0.00316 µM, first compound 10 µM): 97.7%
- viability, T/C [3]: 117%
- viability, T/C [4]: 108%
- viability, T/C (second compound 0.01 µM, first compound 0.316 µM): 102%
- viability, T/C (second compound 0.01 µM, first compound 1 µM): 103%
- viability, T/C (second compound 0.01 µM, first compound 3.16 µM): 107%
- viability, T/C (second compound 0.01 µM, first compound 10 µM): 81.1%
- viability, T/C [5]: 93.7%
- viability, T/C [6]: 92.2%
- viability, T/C (second compound 0.0316 µM, first compound 0.316 µM): 114%
- viability, T/C (second compound 0.0316 µM, first compound 1 µM): 101%
- viability, T/C (second compound 0.0316 µM, first compound 3.16 µM): 98.6%
- viability, T/C (second compound 0.0316 µM, first compound 10 µM): 84%
- viability, T/C [7]: 66%
- viability, T/C [8]: 73.9%
- viability, T/C (second compound 0.1 µM, first compound 0.316 µM): 72.8%
- viability, T/C (second compound 0.1 µM, first compound 1 µM): 74.8%
- viability, T/C (second compound 0.1 µM, first compound 3.16 µM): 62.9%
- viability, T/C (second compound 0.1 µM, first compound 10 µM): 67.5%
- viability, T/C [9]: 20.7%
- viability, T/C [10]: 26.3%
- viability, T/C (second compound 0.316 µM, first compound 0.316 µM): 28.3%
- viability, T/C (second compound 0.316 µM, first compound 1 µM): 25.5%
- viability, T/C (second compound 0.316 µM, first compound 3.16 µM): 24.8%
- viability, T/C (second compound 0.316 µM, first compound 10 µM): 25.9%
- viability, T/C [11]: 4.11%
- viability, T/C [12]: 3.82%
- viability, T/C (second compound 1 µM, first compound 0.316 µM): 3.77%
- viability, T/C (second compound 1 µM, first compound 1 µM): 4.37%
- viability, T/C (second compound 1 µM, first compound 3.16 µM): 3.8%
- viability, T/C (second compound 1 µM, first compound 10 µM): 3.34%

SMILES: Cn1cnc2c(F)c(Nc3ccc(Br)cc3Cl)c(C(=O)NOCCO)cc21 + COc1c(OCCCN2CCOCC2)ccc2c3n(c(=NC(=O)c4cnc(N)nc4)nc12)CCN3
- IC50 (second compound 0.00316 µM): > 3000 nM
- IC50 (second compound 0.01 µM): > 3000 nM
- IC50 (second compound 0.0316 µM): > 3000 nM
- IC50 (second compound 0.1 µM): > 3000 nM
- IC50 (second compound 0.316 µM): < 9.49 nM
- IC50 (second compound 1 µM): < 9.49 nM
- viability, T/C (second compound 0.00316 µM, first compound 0.00949 µM): 121%
- viability, T/C (second compound 0.00316 µM, first compound 0.03 µM): 82.1%
- viability, T/C (second compound 0.00316 µM, first compound 0.0949 µM): 101%
- viability, T/C (second compound 0.00316 µM, first compound 0.3 µM): 83.6%
- viability, T/C (second compound 0.00316 µM, first compound 0.949 µM): 96.6%
- viability, T/C (second compound 0.00316 µM, first compound 3 µM): 92.3%
- viability, T/C (second compound 0.01 µM, first compound 0.00949 µM): 103%
- viability, T/C (second compound 0.01 µM, first compound 0.03 µM): 90.2%
- viability, T/C (second compound 0.01 µM, first compound 0.0949 µM): 99.2%
- viability, T/C (second compound 0.01 µM, first compound 0.3 µM): 89.3%
- viability, T/C (second compound 0.01 µM, first compound 0.949 µM): 90.5%
- viability, T/C (second compound 0.01 µM, first compound 3 µM): 92.7%
- viability, T/C (second compound 0.0316 µM, first compound 0.00949 µM): 90%
- viability, T/C (second compound 0.0316 µM, first compound 0.03 µM): 93.8%
- viability, T/C (second compound 0.0316 µM, first compound 0.0949 µM): 102%
- viability, T/C (second compound 0.0316 µM, first compound 0.3 µM): 87%
- viability, T/C (second compound 0.0316 µM, first compound 0.949 µM): 80.8%
- viability, T/C (second compound 0.0316 µM, first compound 3 µM): 78.6%
- viability, T/C (second compound 0.1 µM, first compound 0.00949 µM): 62.4%
- viability, T/C (second compound 0.1 µM, first compound 0.03 µM): 59.3%
- viability, T/C (second compound 0.1 µM, first compound 0.0949 µM): 59%
- viability, T/C (second compound 0.1 µM, first compound 0.3 µM): 73.5%
- viability, T/C (second compound 0.1 µM, first compound 0.949 µM): 64.4%
- viability, T/C (second compound 0.1 µM, first compound 3 µM): 59.4%
- viability, T/C (second compound 0.316 µM, first compound 0.00949 µM): 20.6%
- viability, T/C (second compound 0.316 µM, first compound 0.03 µM): 25.5%
- viability, T/C (second compound 0.316 µM, first compound 0.0949 µM): 24.7%
- viability, T/C (second compound 0.316 µM, first compound 0.3 µM): 28%
- viability, T/C (second compound 0.316 µM, first compound 0.949 µM): 33.7%
- viability, T/C (second compound 0.316 µM, first compound 3 µM): 32.3%
- viability, T/C (second compound 1 µM, first compound 0.00949 µM): 3.08%
- viability, T/C (second compound 1 µM, first compound 0.03 µM): 3.98%
- viability, T/C (second compound 1 µM, first compound 0.0949 µM): 2.82%
- viability, T/C (second compound 1 µM, first compound 0.3 µM): 3.55%
- viability, T/C (second compound 1 µM, first compound 0.949 µM): 2.39%
- viability, T/C (second compound 1 µM, first compound 3 µM): 1.24%

— PubChem BioAssay AID1963974 (Molecular Pharmacology Branch, DTP, NCI, 2024)
